Patent US5252718A, “Fibroblast growth factor antagonists” (The Salk Institute for Biological Studies, priority 1992, dated 1993)
Ends that are not written are not given here.

Legend:
[1] = Binding to [^3 H]-heparin; settings: result in words
3T3 cells = assay: [^3 H]-thymidine incorporation in serum-starved 3T3 cells challenged with bFGF; format: cell-based; settings: 24 hours with peptide and bFGF challenge, then 5 hours label, result in words
Procedure: The synthesis of bFGF(97-120)-NH2 having the formula: H-Arg-Leu-Glu-Ser-Asn-Asn-Tyr-Asn-Thr-Tyr-Arg-Ser-Arg-Lys-Tyr-Ser-Ser-Trp- Tyr-Val-Ala-Lys-Arg-NH2 is conducted in a stepwise manner using a Beckman 990 synthesizer and an MBHA resin in the manner described in Example I. The peptide is judged to be substantially pure using TLC and HPLC. Testing is carried out using a culture of serum-starved 3T3 cells which are incubated for 24 hours with the bFGF peptide fragment and a challenge dose of bFGF and then incubated for 5 hours with radioactive [^3 H]-thymidine to determine whether the fragment will inhibit the incorporation of [^3 H]-DNA in the cell line which will be indicative of its inhibiting cell growth.

[2] = system: FGF receptors of BHK cells; settings: result in words

binding of the peptide to heparin [1] | Substance | inhibition of bFGF-induced mitosis ([^3 H]-thymidine incorporation) (3T3 cells) | inhibition of bFGF binding to BHK cells (receptor) [2]
binds to heparin | YNTYRSRKYSSWYVALKR-NH2 [bFGF(103-120)-NH2, H-Tyr-Asn-Thr-Tyr-Arg-Ser-Arg-Lys-Tyr-Ser-Ser-Trp-Tyr-Val-Ala-Leu-Lys-Arg- NH2] | very good inhibition | very strongly inhibits
binds to heparin | H-YRSRKYSSWYVALKR-NH2 [bFGF(106-120)-NH2, H-Tyr-Arg-Ser-Arg-Lys-Tyr-Ser-Ser-Trp-Tyr-Val-Ala-Leu-Lys-Arg-NH2] | very good inhibition | very strongly inhibits
